Where a name gives a salt, the structure may show the parent alone.
Columns and labels:
[1] = test system: bacterial strains that express the class D cephalosporinase OXA-15; assay: Standard BLI potentiation MIC / synergy MIC assays, strains expressing OXA-15; type: cell-based, E. coli; details: in combination with a β-lactam; comparator Avibactam (CCC)
How it was run: (§1)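 Broth microdilution in cation-adjusted Mueller Hinton broth per CLSI M07-A9, ~10^5 CFU/mL, 18-20 h at 37 °C with aeration; engineered E. coli carrying β-lactamase plasmids kept on 25 μg/mL tetracycline. β-lactam MIC measured in 2-fold dilutions (128-0.13 μg/mL) with BLI fixed at 4 μg/mL; sMIC titrates BLI against a fixed β-lactam concentration. MIC = lowest concentration without visible turbidity.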

[2] = test system: bacterial strains that express KPC β-lactamases; assay: Standard BLI potentiation MIC / synergy MIC assays, strains expressing KPC β-lactamases; type: cell-based; details: in combination with a β-lactam; comparator Avibactam
How it was run: as §1

SMILES | activity against bacterial strains that express the class D cephalosporinase OXA-15, compared with Avibactam [1] | activity and/or spectrum of activity against bacterial strains that express KPC β-lactamases, compared with Avibactam [2]
O=C1N2C[C@@H](CC[C@H]2c2nnc(CCC3CNC3)o2)N1OS(=O)(=O)O [Compound 742, (2S,5R)-2-(5-(2-(azetidin-3-ybethyl)-1,3,4-oxadiazol-2-yl)-7-oxo-1,6-diazabicyclo[3.2.1]octan-6-yl hydrogen sulfate] | more active than Avibactam | more active than Avibactam for at least one, bacterial strain that expresses KPC β-lactamase and/or show a better spectrum of activity
O=C1N2C[C@@H](CC[C@H]2c2nnc(CCCCNC3CCNCC3)o2)N1OS(=O)(=O)O [Compound 772, (2S,5R)-7-oxo-2-(5-(4-(piperidin-4-ylamino)butyl)-1,3,4-oxadiazol-2-yl)-1,6-diazabicyclo[3.2.1]octan-6-yl hydrogen sulfate] | more active than Avibactam | more active than Avibactam for at least one, bacterial strain that expresses KPC β-lactamase and/or show a better spectrum of activity
NCCc1nnc([C@@H]2CC[C@@H]3CN2C(=O)N3OS(=O)(=O)O)o1 [Compound 703, (2S,5R)-2-(5-(2-aminoethyl)-1,3,4-oxadiazol-2-yl)-7-oxo-1,6-diazabicyclo[3.2.1]octan-6-yl hydrogen sulfate] | more active than Avibactam | more active than Avibactam for at least one, bacterial strain that expresses KPC β-lactamase and/or show a better spectrum of activity
O=C1N2C[C@@H](CC[C@H]2c2nnc(C3CNC3)o2)N1OS(=O)(=O)O [Compound 708, (2S,5R)-2-(5-(azetidin-3-yl)-1,3,4-oxadiazol-2-yl)-7-oxo-1,6-diazabicyclo[3.2.1]octan-6-yl hydrogen sulfate] | more active than Avibactam | more active than Avibactam for at least one, bacterial strain that expresses KPC β-lactamase and/or show a better spectrum of activity
O=C1N2C[C@@H](CC[C@H]2c2nnc(CCCC3CNC3)o2)N1OS(=O)(=O)O [Compound 743, (2S,5R)-2-(5-(3-(azetidin-3-yl)propyl)-1,3,4-oxadiazol-2-yl)-7-oxo-1,6-diazabicyclo[3.2.1]octan-6-yl hydrogen sulfate] | more active than Avibactam | more active than Avibactam for at least one, bacterial strain that expresses KPC β-lactamase and/or show a better spectrum of activity
O=C1N2C[C@@H](CC[C@H]2c2nnc(C3CCNCC3)o2)N1OS(=O)(=O)O [Compound 711, (2S,5R)-7-oxo-2-(5-(piperidin-4-yl)-1,3,4-oxadiazol-2-yl)-1,6-diazabicyclo[3.2.1]octan-6-yl hydrogen sulfate] | more active than Avibactam | more active than Avibactam for at least one, bacterial strain that expresses KPC β-lactamase and/or show a better spectrum of activity
N=C(N)NC[C@@H](O)c1nnc([C@@H]2CC[C@@H]3CN2C(=O)N3OS(=O)(=O)O)o1 [Compound 731, (2S,5R)-2-(5-((R)-2-guanidino-1-hydroxyethyl)-1,3,4-oxadiazol-2-yl)-7-oxo-1,6-diazabicyclo[3.2.1]octan-6-yl hydrogen sulfate] | more active than Avibactam | more active than Avibactam for at least one, bacterial strain that expresses KPC β-lactamase and/or show a better spectrum of activity
N[C@H]1C[C@@H](Cc2nnc([C@@H]3CC[C@@H]4CN3C(=O)N4OS(=O)(=O)O)o2)C1 [Compound 728, (2S,5R)-2-(5-(((1s,3R)-3-aminocyclobutyl)methyl)-1,3,4-oxadiazol-2-yl)-7-oxo-1,6-diazabicyclo[3.2.1]octan-6-yl hydrogen sulfate] | more active than Avibactam | more active than Avibactam for at least one, bacterial strain that expresses KPC β-lactamase and/or show a better spectrum of activity
O=C1N2C[C@@H](CC[C@H]2c2nnc(CCNCCO)o2)N1OS(=O)(=O)O [Compound 736, (2S,5R)-2-(5-(2-((2-hydroxyethyl)amino)ethyl)-1,3,4-oxadiazol-2-yl)-7-oxo-1,6-diazabicyclo[3.2.1]octan-6-yl hydrogen sulfate] | more active than Avibactam | more active than Avibactam for at least one, bacterial strain that expresses KPC β-lactamase and/or show a better spectrum of activity
N[C@H]1C[C@@H](CCc2nnc([C@@H]3CC[C@@H]4CN3C(=O)N4OS(=O)(=O)O)o2)C1 [Compound 754, (2S,5R)-2-(5-(2-((1s,3S)-3-aminocyclobutyl)ethyl)-1,3,4-oxadiazol-2-yl)-7-oxo-1,6-diazabicyclo[3.2.1]octan-6-yl hydrogen sulfate] | more active than Avibactam | more active than Avibactam for at least one, bacterial strain that expresses KPC β-lactamase and/or show a better spectrum of activity
O=C1N2C[C@@H](CC[C@H]2c2nnco2)N1OS(=O)(=O)O [Compound 701, (2S,5R)-2-(1,3,4-oxadiazol-2-yl)-7-oxo-1,6-diazabicyclo[3.2.1]octan-6-yl hydrogen sulfate] | more active than Avibactam | more active than Avibactam for at least one, bacterial strain that expresses KPC β-lactamase and/or show a better spectrum of activity
O=C1N2C[C@@H](CC[C@H]2c2nnc(CN[C@H]3CCNC3)o2)N1OS(=O)(=O)O [Compound 765, (2S,5R)-7-oxo-2-(5-(((S)-pyrrolidin-3-ylamino)methyl)-1,3,4-oxadiazol-2-yl)-1,6-diazabicyclo[3.2.1]octan-6-yl hydrogen sulfate] | more active than Avibactam | more active than Avibactam for at least one, bacterial strain that expresses KPC β-lactamase and/or show a better spectrum of activity
NC(=O)c1nnc([C@@H]2CC[C@@H]3CN2C(=O)N3OS(=O)(=O)O)o1 [Compound 706, (2S,5R)-2-(5-carbamoyl-1,3,4-oxadiazol-2-yl)-7-oxo-1,6-diaza-bicyclo[3.2.1]octan-6-yl hydrogen sulfate] | more active than Avibactam | more active than Avibactam for at least one, bacterial strain that expresses KPC β-lactamase and/or show a better spectrum of activity
CNCCc1nnc([C@@H]2CC[C@@H]3CN2C(=O)N3OS(=O)(=O)O)o1 [Compound 722, (2S,5R)-2-(5-(2-(methylamino)ethyl)-1,3,4-oxadiazol-2-yl)-7-oxo-1,6-diazabicyclo[3.2.1]octan-6-yl hydrogen sulfate] | more active than Avibactam | more active than Avibactam for at least one, bacterial strain that expresses KPC β-lactamase and/or show a better spectrum of activity
N[C@H]1CN[C@@H](c2nnc([C@@H]3CC[C@@H]4CN3C(=O)N4OS(=O)(=O)O)o2)C1 [Compound 761, (2S,5R)-2-(5-((2R,4R)-4-aminopyrrolidin-2-yl)-1,3,4-oxadiazol-2-yl)-7-oxo-1,6-diazabicyclo[3.2.1]octan-6-yl hydrogen sulfate] | more active than Avibactam | more active than Avibactam for at least one, bacterial strain that expresses KPC β-lactamase and/or show a better spectrum of activity
N[C@H]1C[C@@H](NCc2nnc([C@@H]3CC[C@@H]4CN3C(=O)N4OS(=O)(=O)O)o2)C1 [Compound 756, (2S,5R)-2-(5-((((1s,3R)-3-aminocyclobutyl)amino)methyl)-1,3,4-oxadiazol-2-yl)-7-oxo-1,6-diazabicyclo[3.2.1]octan-6-yl hydrogen sulfate] | more active than Avibactam | more active than Avibactam for at least one, bacterial strain that expresses KPC β-lactamase and/or show a better spectrum of activity
O=C1N2C[C@@H](CC[C@H]2c2nnc(C3CCNC3)o2)N1OS(=O)(=O)O (stereo partly drawn) [Compound 710, (2S,5R)-7-oxo-2-(5-(pyrrolidin-3-yl)-1,3,4-oxadiazol-2-yl)-1,6-diazabicyclo[3.2.1]octan-6-yl hydrogen sulfate] | more active than Avibactam | more active than Avibactam for at least one, bacterial strain that expresses KPC β-lactamase and/or show a better spectrum of activity

— patent US8962843B2, “1,3,4-oxadiazole and 1,3,4-thiadiazole beta-lactamase inhibitors” (priority 2012, dated 2015)
